LD50 data for one compound are collected here from ChEMBL document CHEMBL1151110, “Biosynthesis of staurosporine, 1. 1H- and 13C-NMR assignments” (J Nat Prod, 1988).

This data set is described as follows: Acute toxicity in ip dosed mouse. Format: organism-based. The conditions noted are these: in vivo.

What is called LD50 is the dose expected to kill half of the subjects tested. A higher LD50 goes with a less toxic substance.

On to `CN[C@@H]1C[C@H]2O[C@@](C)([C@@H]1OC)n1c3ccccc3c3c4c(c5c6ccccc6n2c5c31)C(=O)NC4.Cl`, for which the median lethal dose (LD50) was 6.6 mg/kg.
